These results are taken from PubChem BioAssay (NCI).

Among the test systems are UACC-257 melanoma; MDA-MB-435; RXF 393 renal; SNB-75 CNS; DU-145 prostate; HCT-116 colon; KM12 colon; NCI-H460 lung; TK-10 renal; CCRF-CEM leukemia.
Assay in all cases: NCI anticancer screen, dose series, 48 h

Each structure is given as a SMILES string.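 Five compound concentrations were applied to cells in 96-well plates for 48 hours; endpoints were derived by simple linear interpolation of the resulting dose-response curve. Here, GI50 denotes the concentration required for 50% inhibition of growth. TGI: total growth inhibition.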

`CCCCCCc1cc2cc(-c3csc(/C=C/c4ccccc4)n3)c(=O)oc2cc1O`: the GI50 is 40.4 µM in the test on UACC-257 melanoma; 12.9 µM in the test with MDA-MB-435; 3.71 µM in the test on RXF 393 renal; 11.5 µM in the test with SNB-75 CNS; 12.8 µM in the test with DU-145 prostate; 3.39 µM in the test with HCT-116 colon. The GI50 was 4.42 µM in the test with KM12 colon, 7.01 µM in the test on NCI-H460 lung, 29 µM in the test with TK-10 renal and 4.2 µM in the test on CCRF-CEM leukemia. Further, the TGI is > 100 µM in the test with UACC-257 melanoma; 27.2 µM in the test with MDA-MB-435; 15.1 µM with RXF 393 renal; 26.5 µM with SNB-75 CNS; 44.7 µM in the test with DU-145 prostate; 12.1 µM in the test with HCT-116 colon. Moreover, the TGI was 16.4 µM in the test on KM12 colon, 21.7 µM with NCI-H460 lung, 69.5 µM in the test on TK-10 renal and 15 µM with CCRF-CEM leukemia.
For the compound `FC(F)(F)c1ccc(-c2ncc(-c3ccc(C(F)(F)F)cc3)c(NCc3cc(C(F)(F)F)cc(C(F)(F)F)c3)n2)cc1`, the GI50 with UACC-257 melanoma was 5.29 µM; in the test on MDA-MB-435 it was 4.23 µM; in the test on RXF 393 renal, 4.73 µM; with SNB-75 CNS, 4.17 µM; with DU-145 prostate, 5.25 µM; in the test on HCT-116 colon, 3.84 µM. For the same compound, the GI50 in the test on KM12 colon was 4.3 µM; with NCI-H460 lung, 3.72 µM; in the test with TK-10 renal it was 7.51 µM; in the test on CCRF-CEM leukemia it was 4.34 µM. For the same compound, the TGI in the test with UACC-257 melanoma was 44.4 µM; in the test with MDA-MB-435 it was > 100 µM; with RXF 393 renal it was 74.9 µM; in the test on SNB-75 CNS it was 73 µM; in the test with DU-145 prostate it was > 100 µM; in the test with HCT-116 colon, > 100 µM. The TGI with KM12 colon was 63.2 µM; in the test with NCI-H460 lung it was 79.4 µM; with TK-10 renal, > 100 µM; with CCRF-CEM leukemia, > 100 µM.
As to `O=C1c2cccnc2C(=O)c2c1c(C(=O)OCCc1ccccn1)c1ccccn21`, the GI50 is 0.152 µM in the test on UACC-257 melanoma; 0.0524 µM in the test on MDA-MB-435; 0.124 µM with RXF 393 renal; < 0.0153 µM with SNB-75 CNS; 0.0296 µM in the test with DU-145 prostate; 0.019 µM in the test on HCT-116 colon. Moreover, the GI50 in the test on KM12 colon was 0.0946 µM; in the test with NCI-H460 lung, < 0.01 µM; with TK-10 renal, 0.34 µM; in the test on CCRF-CEM leukemia, 1.46 µM. The TGI in the test with UACC-257 melanoma turned out to be 0.583 µM; in the test on MDA-MB-435 it was 3.72 µM; in the test on RXF 393 renal, 1.4 µM; in the test with SNB-75 CNS, 1.71 µM; in the test with DU-145 prostate, 1.22 µM; with HCT-116 colon, 0.318 µM. Besides, the TGI in the test with KM12 colon was > 22.4 µM; in the test with NCI-H460 lung it was 0.079 µM; in the test with TK-10 renal it was 2.19 µM; in the test with CCRF-CEM leukemia, > 25.9 µM.
As for `C/C(=N/NC(=S)N1CC2CCC(CC2)C1)c1cnccn1`, the TGI in the test with UACC-257 melanoma came out at 14.3 µM; in the test with MDA-MB-435 it was 16.4 µM; in the test on RXF 393 renal, 7.78 µM; in the test with SNB-75 CNS, 7.02 µM; in the test with DU-145 prostate it was 13.8 µM; in the test with HCT-116 colon, 12.3 µM. Besides, the TGI was 21 µM in the test with KM12 colon, 0.273 µM in the test on NCI-H460 lung and 16.7 µM in the test on TK-10 renal.
Turning to `CC1(C)OC2C(CO)OC(n3ccc(N)nc3=O)C2O1` (stereo unspecified), the TGI in the test with UACC-257 melanoma, in the test with MDA-MB-435, in the test on RXF 393 renal, in the test with DU-145 prostate, in the test with HCT-116 colon and with KM12 colon was > 100 µM in each case. The TGI in the test on NCI-H460 lung, in the test on TK-10 renal and in the test with CCRF-CEM leukemia was > 100 µM each time.
As to `O=C1NC(=O)C(c2ccccc2)=C1Nc1ccccc1`, the GI50 in the test on MDA-MB-435, in the test with RXF 393 renal, in the test with SNB-75 CNS, in the test on DU-145 prostate, in the test with HCT-116 colon and in the test with KM12 colon was > 25 µM throughout. Also, the GI50 in the test on NCI-H460 lung and in the test on TK-10 renal was > 25 µM throughout. The TGI in the test on MDA-MB-435, in the test with RXF 393 renal, in the test with SNB-75 CNS, in the test with DU-145 prostate, with HCT-116 colon and with KM12 colon was > 25 µM throughout. In addition, the TGI in the test with NCI-H460 lung and in the test with TK-10 renal was > 25 µM throughout.
With `Cn1c(NCC(CN2CCCC2)OC(=O)c2ccccc2)cc(=O)n(C)c1=O` (stereo unspecified), the GI50 in the test on UACC-257 melanoma, with MDA-MB-435, with RXF 393 renal, with SNB-75 CNS, with DU-145 prostate and with HCT-116 colon was > 100 µM in each case. The GI50 was > 100 µM with NCI-H460 lung, > 100 µM in the test with TK-10 renal and 0.0757 µM in the test with CCRF-CEM leukemia. In addition, the TGI with UACC-257 melanoma, in the test on MDA-MB-435, in the test with RXF 393 renal, in the test on SNB-75 CNS, with DU-145 prostate and in the test on HCT-116 colon was > 100 µM each time. Further, the TGI in the test with NCI-H460 lung is > 100 µM; in the test with TK-10 renal, > 100 µM; in the test on CCRF-CEM leukemia it was 4.06 µM.
`NC(=O)CCc1ccccc1Oc1nccc(-c2c(-c3ccc(F)cc3)ncn2C2CCNCC2)n1`: the GI50 in the test with MDA-MB-435, in the test on RXF 393 renal, with SNB-75 CNS, in the test with DU-145 prostate, in the test on HCT-116 colon and in the test on KM12 colon was > 25 µM throughout. In addition, the GI50 in the test with NCI-H460 lung and in the test with TK-10 renal was > 25 µM in each case. The TGI in the test on MDA-MB-435, with RXF 393 renal, with SNB-75 CNS, in the test with DU-145 prostate, in the test on HCT-116 colon and with KM12 colon was > 25 µM each time. Also, the TGI in the test on NCI-H460 lung and in the test with TK-10 renal was > 25 µM throughout.
Take `O=C(O)c1cn(C2CC2)c2cc(N3CCN(C(=O)Nc4nc(-c5ccc(Br)cc5)cs4)CC3)c(F)cc2c1=O`: the GI50 in the test on MDA-MB-435 is 1.88 µM; with RXF 393 renal, 3.9 µM; with SNB-75 CNS, 0.715 µM; in the test with DU-145 prostate, 2.05 µM; in the test with HCT-116 colon, 1.17 µM; with KM12 colon, 1.93 µM. Also, the results for the GI50 in the test on NCI-H460 lung and in the test with CCRF-CEM leukemia were 1.09 µM and 1.23 µM, respectively. The TGI with MDA-MB-435, in the test on RXF 393 renal, in the test with SNB-75 CNS, with DU-145 prostate, in the test on HCT-116 colon and in the test with KM12 colon was > 100 µM in each case. The TGI with NCI-H460 lung and in the test on CCRF-CEM leukemia was > 100 µM each time.
For the compound `Cn1c(=O)c2[nH]c(CCCc3ccc([N+](=O)[O-])cc3)nc2n(C)c1=O`, the TGI in the test with UACC-257 melanoma, with MDA-MB-435, with RXF 393 renal, with SNB-75 CNS, in the test with DU-145 prostate and in the test on HCT-116 colon was > 100 µM each time. Moreover, the TGI with KM12 colon, with NCI-H460 lung and with TK-10 renal was > 100 µM in each case.
For `O=C(O)CNCCc1ccccc1`, the TGI with MDA-MB-435, in the test with RXF 393 renal, in the test with SNB-75 CNS, in the test with DU-145 prostate, in the test with HCT-116 colon and with KM12 colon was > 100 µM throughout. In addition, the TGI in the test with NCI-H460 lung, with TK-10 renal and with CCRF-CEM leukemia was > 100 µM each time.
Turning to `CS(=N)(=O)CCC(N)P(=O)(O)O` (stereo unspecified), the TGI in the test with UACC-257 melanoma, in the test on MDA-MB-435, with RXF 393 renal, in the test with DU-145 prostate, in the test on HCT-116 colon and in the test on KM12 colon was > 100 µM throughout. Besides, the TGI in the test on NCI-H460 lung and in the test on TK-10 renal was > 100 µM each time.
For `COc1ncc(-c2ccc3nccc(C#CCN4CCN(S(C)(=O)=O)CC4)c3c2)cc1NS(=O)(=O)c1ccc(F)cc1F`, the GI50 in the test with UACC-257 melanoma was 0.0386 µM; with MDA-MB-435, 0.0915 µM; in the test with RXF 393 renal, 0.0438 µM; in the test on SNB-75 CNS, 0.0106 µM; in the test with DU-145 prostate, 0.108 µM; in the test with HCT-116 colon, 0.178 µM. Moreover, the results for the GI50 with KM12 colon, in the test with NCI-H460 lung and in the test with CCRF-CEM leukemia were 0.293 µM, 0.049 µM and 0.101 µM, respectively. Moreover, the TGI in the test on UACC-257 melanoma was 0.517 µM; in the test with MDA-MB-435, 1.26 µM; in the test with RXF 393 renal it was 0.354 µM; in the test on SNB-75 CNS, 0.152 µM; in the test on DU-145 prostate it was 12.6 µM; with HCT-116 colon it was 1.87 µM. Further, the TGI with KM12 colon came to 1.55 µM; with NCI-H460 lung it was 4.71 µM; with CCRF-CEM leukemia, 2.49 µM.
Take `O=c1[nH]c(F)nc2c1ncn2C1OC(CO)C(O)C1O` (stereo unspecified): the GI50 in the test with UACC-257 melanoma, in the test with MDA-MB-435, in the test on RXF 393 renal, in the test with SNB-75 CNS, with DU-145 prostate and in the test on HCT-116 colon was > 100 µM each time. The GI50 in the test with KM12 colon, in the test with NCI-H460 lung and in the test on CCRF-CEM leukemia was > 100 µM each time. For the same compound, the TGI in the test on UACC-257 melanoma, in the test with MDA-MB-435, in the test with RXF 393 renal, in the test with SNB-75 CNS, in the test on DU-145 prostate and with HCT-116 colon was > 100 µM each time. The TGI in the test with KM12 colon, with NCI-H460 lung and in the test on CCRF-CEM leukemia was > 100 µM in each case.
